Where “and” joins values, the source holds several entries; their conditions need not be identical. Equal values may be shown once.
Legend:
[1] = biological target: T1, Human platelet cyclic AMP phosphodiesterase (PDE-3) (Homo sapiens, UniProt Q14432); test: cAMP PDE-3 inhibitory activity assay; type: biochemical; conditions: 10 minutes at 30° C., n=3 per concentration
T1 construct: Human platelet cyclic AMP phosphodiesterase was prepared; from tissue; host or cells: human platelets
Description: Human platelet cyclic AMP phosphodiesterase was prepared according to the method of Alvarez et al. (Mol. Pharmacol. 1986, 29, 554). The PDE incubation medium contained 10 mM Tris-HCl buffer, pH 7.7, 10 mM MgSO4, and 1 μM […] (0.2 μCi) in a total volume of 1.0 mL. Test compounds were dissolved in dimethyl sulfoxide (DMSO) immediately prior to addition to the incubation medium, and the resulting mixture was allowed to stand for 10 minutes prior to the addition of enzyme. Following the addition of PDE, the contents were mixed and incubated for 10 minutes at 30° C. Three assays each were performed for each of five test compound concentrations, the mean of the determinations (n=3) at each concentration was plotted, and IC50 values were determined graphically.

[2] = system: guinea pig papillary muscle; test: Contraction-relaxation in guinea pig papillary muscle; type: cell-based; conditions: FIG. 1
Description: Male guinea pigs (400–500 g) were killed by cervical dislocation and the hearts were quickly removed, immersed in ice-cold, and oxygenated in Kreb's solution containing 113.1 mM NaCl, 4.6 mM KCl, 2.45 mM CaCl2, 1.2 mM MgCl2, […], and 10.0 mM glucose; pH 7.4 with 95% O2–5% CO2. The ventricles were opened and papillary muscles were removed with chordae tandineae and a base of surrounding tissue intact. The tendinous ends of the muscles were ligated with silk thread, and the muscles were mounted in vertical, double-jacketed organ baths containing 10 mL of oxygenated Kreb's solution kept at 37° C. […]
Following a 45-minute equilibration period under a 1 gram tension, control contractions were elicited by stimulating the muscle using stainless steel field electrodes at a frequency of 1.0 Hz, 2.0 ms duration. […] Control contraction-relaxation cycles were recorded for 30 seconds continuously. […] A series of washout contractions was recorded following a change of solution. When the amplitude of contraction returned to that measured in control conditions, a single concentration of positive control was then tested on the tissue in the same manner as Compound 5 and milrinone.
Contraction amplitude as well as the time courses of contraction and relaxation were quantified. […]

[3] = system: paced dog model of congestive heart failure; test: Paced dog model of congestive heart failure; type: in vivo; conditions: for ventricular tachycardia: all tested dosages
Description: Compound 8 was evaluated in a paced dog model of congestive heart failure. Pacing-induced heart failure in the dog produces alterations in heart physiology and molecular signaling similar to what is seen in the failing human heart, making this an appropriate model to test compounds that can potentially improve calcium homeostasis and heart failure physiology. Heart failure was induced by increasing the heart rate to 220–240 beats per minute (bpm) for a six week period. The degree of heart failure was documented by both pressure measurements and echocardiogram (changes in contractility, ejection fraction, ventricular relaxation, fractional area shortening, isovolumic relaxation time). Compound 8 or the milrinone were administered following the induction of heart failure.

T1 sequence (Q14432 whole entry): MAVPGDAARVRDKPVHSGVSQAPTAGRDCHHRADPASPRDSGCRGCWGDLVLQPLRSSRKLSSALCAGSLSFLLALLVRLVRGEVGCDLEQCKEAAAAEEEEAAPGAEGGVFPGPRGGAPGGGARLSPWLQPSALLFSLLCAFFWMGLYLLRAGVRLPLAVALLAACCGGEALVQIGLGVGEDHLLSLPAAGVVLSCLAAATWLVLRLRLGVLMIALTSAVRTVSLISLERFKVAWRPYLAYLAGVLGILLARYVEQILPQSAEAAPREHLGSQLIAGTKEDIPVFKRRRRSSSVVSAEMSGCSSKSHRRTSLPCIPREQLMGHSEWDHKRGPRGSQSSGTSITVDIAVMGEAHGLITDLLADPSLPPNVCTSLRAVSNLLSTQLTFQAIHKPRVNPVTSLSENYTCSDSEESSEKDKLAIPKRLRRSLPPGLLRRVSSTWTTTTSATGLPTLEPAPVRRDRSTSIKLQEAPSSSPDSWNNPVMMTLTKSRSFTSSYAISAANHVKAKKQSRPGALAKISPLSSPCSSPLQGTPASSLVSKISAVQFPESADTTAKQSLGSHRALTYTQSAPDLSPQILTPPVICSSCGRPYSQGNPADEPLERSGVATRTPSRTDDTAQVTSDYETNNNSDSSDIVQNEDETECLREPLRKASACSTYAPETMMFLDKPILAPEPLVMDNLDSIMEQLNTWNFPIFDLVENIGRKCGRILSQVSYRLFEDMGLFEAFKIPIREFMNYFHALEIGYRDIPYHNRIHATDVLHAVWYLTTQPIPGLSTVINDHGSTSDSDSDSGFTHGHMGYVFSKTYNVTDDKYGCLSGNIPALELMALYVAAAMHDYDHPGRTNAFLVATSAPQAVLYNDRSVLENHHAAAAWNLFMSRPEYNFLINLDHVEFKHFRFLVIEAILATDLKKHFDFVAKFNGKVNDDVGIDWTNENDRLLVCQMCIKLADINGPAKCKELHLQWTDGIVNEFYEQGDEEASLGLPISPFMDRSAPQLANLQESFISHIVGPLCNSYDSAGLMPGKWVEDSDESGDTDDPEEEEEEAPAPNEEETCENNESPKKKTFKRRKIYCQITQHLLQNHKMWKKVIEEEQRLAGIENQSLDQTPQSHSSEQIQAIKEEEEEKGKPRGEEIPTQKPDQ

CCOC(=O)C1=C(COCCNC(=O)COc2ccc3[nH]c(=O)ccc3c2)NC(C)=C(C(=O)OC)C1c1ccccc1Cl (stereo not drawn) [Compound 11, methyl 4-(2-chlorophenyl)-5-(ethoxycarbonyl)-2-methyl-6-({2-[2-(2-oxo(6-hydroquinolyloxy))acetylamino]ethoxy}methyl)-1,4-dihydropyridine-3-carboxylate]
IC50 [1]: 100 nM

CCOC(=O)C1=C(COCCNC(=O)CCCOc2ccc3[nH]c(=O)ccc3c2)NC(C)=C(C(=O)OC)C1c1ccccc1Cl (stereo not drawn) [Compound 5, methyl 4-(2-chlorophenyl)-5-(ethoxycarbonyl)-2-methyl-6-({2-[4-(2-oxo(6-hydroquinolyloxy))butanoylamino]ethoxy}methyl)-1,4-dihydropyridine-3-carboxylate]
inotropic effect (muscle contractility) ([2]; cumulative concentrations, stimulated at 1.0 Hz): positive inotropic effect (increase in muscle contractility) in a dose-dependent manner
maximum increase in contractility compared with milrinone ([2]; guinea pig papillary muscle): less than the maximum increase produced by milrinone
IC50 [1]: 300 nM

COC(=O)C1=C(C)NC(COCCCOc2ccc3[nH]c(=O)ccc3c2)=C(C(=O)OC)C1c1ccccc1Cl (stereo not drawn) [Compound 7, methyl 4-(2-chlorophenyl)-5-(methoxycarbonyl)-2-methyl-6-{[3-(2-oxo(6-hydroquinolyloxy))propoxy]methyl}-1,4-dihydropyridine-3-carboxylate]
IC50 [1]: 340 nM and 420 nM

CCOC(=O)C1=C(COCCNC(=O)COc2ccc(C3=NNC(=O)CC3)cc2Cl)NC(C)=C(C(=O)OC)C1c1ccccc1Cl (stereo not drawn) [Compound 9, methyl 6-[(2-{2-[2-chloro-4-(6-oxo(1,4,5-trihydropyridazin-3-yl))phenoxy]acetylamino}ethoxy)methyl]-4-(2-chlorophenyl)-5-(ethoxycarbonyl)-2-methyl-1,4-dihydropyridine-3-carboxylate]
IC50 [1]: 48 nM

COC(=O)C1=C(C)NC(COCCNC(=O)CCCOc2ccc3[nH]c(=O)ccc3c2)=C(C(=O)OC)C1c1ccccc1Cl (stereo not drawn) [Compound 10, methyl 4-(2-chlorophenyl)-5-(methoxycarbonyl)-2-methyl-6-({2-[4-(2-oxo(6-hydroquinolyloxy))butanoylamino]ethoxy}methyl)-1,4-dihydropyridine-3-carboxylate]
IC50 [1]: 270 nM

COC(=O)C1=C(C)NC(COCCNC(=O)CCCOc2ccc3[nH]c(=O)ccc3c2)=C(C(=O)OC)C1c1ccccc1[N+](=O)[O-] (stereo not drawn) [Compound 6, methyl 5-(methoxycarbonyl)-2-methyl-4-(2-nitrophenyl)-6-({2-[4-(2-oxo(6-hydroquinolyloxy))butanoylamino]ethoxy}methyl)-1,4-dihydropyridine-3-carboxylate]
IC50 [1]: 270 nM and 110 nM

Cc1[nH]c(=O)c(C#N)cc1-c1ccncc1 [milrinone, reference compound]
ventricular tachycardia ([3]; dogs in heart failure): demonstrated ventricular tachycardia

COC(=O)C1=C(C)NC(COCCNC(=O)COc2ccc3[nH]c(=O)ccc3c2)=C(C(=O)OC)C1c1ccccc1Cl (stereo not drawn) [Compound 12, methyl 4-(2-chlorophenyl)-5-(methoxycarbonyl)-2-methyl-6-({2-[2-(2-oxo(6-hydroquinolyloxy))acetylamino]ethoxy}methyl)-1,4-dihydropyridine-3-carboxylate]
IC50 [1]: 240 nM

COC(=O)C1=C(C)NC(COCCNC(=O)COc2ccc(C3=NNC(=O)CC3)cc2Cl)=C(C(=O)OC)C1c1ccccc1Cl (stereo not drawn) [Compound 8, methyl 6-[(2-{2-[2-chloro-4-(6-oxo(1,4,5-trihydropyridazin-3-yl))phenoxy]acetylamino}ethoxy)methyl]-4-(2-chlorophenyl)-5-(methoxycarbonyl)-2-methyl-1,4-dihydropyridine-3-carboxylate]
contractility (dp/dt max) and ejection fraction, maximal increase relative to that produced by milrinone ([3]; % of that produced by milrinone, FIG. 2): 53–61%
ventricular relaxation (dp/dt min, Tau and isovolumic relaxation time), maximal increase relative to that produced by milrinone ([3]; % of that produced by milrinone, FIG. 3): 63–88%
contractility (dp/dt max) and ejection fraction ([3]; dogs in heart failure, FIG. 2): dose-dependent response
ventricular relaxation (dp/dt min, Tau and isovolumic relaxation time) ([3]; dogs in heart failure, FIG. 3): increased ventricular relaxation in a dose-dependent manner
ventricular tachycardia ([3]; dogs in heart failure): no ventricular tachycardia
in vivo inhibition of PDE-3 and calcium channel antagonism ([3]; systemic administration, dogs in heart failure): demonstrated in vivo inhibition of PDE-3 and calcium channel antagonism
QT prolongation ([3]; under acute conditions): no apparent QT prolongation
IC50 [1]: 80 nM

Reference: US7098211B2, “Compounds having simultaneous ability to block L-type calcium channels and to inhibit phosphodiesterase type 3 activity” (Artesian Therapeutics, Inc., priority 2002, dated 2006)
